The test has as its system C3H10T1/2 cell strain. The experiment in a line: Induction of alkali phosphatase activity in C3H10T1/2 cell strain. To be noted: 200 μg peptide solidified per well by air drying; three days of incubation; blank wells 0.24±0.11. The format is cell-based, mouse. The procedure:
Undifferentiated mouse mesenchymal cell strain C3H10T1/2 (purchased from Dai-Nippon Seiyaku KK, Japan) was dispersed in Eagle's MEM medium containing 10% of fetal bovine serum in a cell concentration of 3.75×10^4 cells/mL, and thus a cell culture liquid was prepared.
Three days after the start of incubation, a culture supernatant was removed, and the wells were washed once with phosphate buffer (PBS: 10 mM, containing 0.15 M of common salt, pH 7.4). To each well of the 96-hole plates, 100 μL of Tris buffer (20 mM, pH 8.5) containing 1% Triton X-100 was added and allowed to stand for 30 minutes to dissolve cells. With respect to 100 μL of the resulting cell solution, 100 μL of Tris buffer (1.5 M, containing 1 mM of ZnCl2 and 1 mM of MgCl2, pH 8.5) containing 7.5 mM of p-nitrophenyl phosphate (purchased from Wako Junyaku Kogyo, Japan) were added. Increase in absorbency at 405 nm was measured to determine the alkaline phosphatase activity in the cell solution. The concentration of protein in the cell solution was also determined using a BCA assay kit (produced by Pierce).
The substance “Example 1: Peptide having amino acid sequence SEQ ID NO:4 with an amino group at the N terminal and a carboxyl group at the C terminal (NSVNSKIPKACSVPTELSAISTLYL)” displayed an alkaline phosphatase activity of 1.3±0.9 nmol/min·mg-protein. The substance “Example 2: Peptide having amino acid sequence SEQ ID NO:4 with an amino group at the N terminal and an amide group at the C terminal (H-NSVNSKIPKACSVPTELSAISTLYL-NH2)” came in with an alkaline phosphatase activity of 1.5±0.6 nmol/min·mg-protein. Turning to “Example 3: Peptide having amino acid sequence SEQ ID NO:5 with an amino group at the N terminal and an amide group at the C terminal (H-NSVNSKIPKASSVPTELSAISTLYL-NH2)”, the alkaline phosphatase activity turned out to be 1.5±0.8 nmol/min·mg-protein. Regarding “Example 4: Peptide having amino acid sequence SEQ ID NO:6 with an amino group at the N terminal and an amide group at the C terminal (H-KIPKASSVPTELSAISTLYL-NH2)”, the alkaline phosphatase activity is given as 1.7±0.1 nmol/min·mg-protein.

The values are drawn from patent publication US7132506B2, “Peptide having osteogenetic activity and osteogenetic accelerator containing the same” (Kyocera Corporation, priority 2001, dated 2006).
